Target: T1, full length active recombinant SYK enzyme (Homo sapiens, UniProt P43405)
T1 construct: full length active recombinant SYK enzyme (Millipore, Calif.); purchased Millipore
Test: Inhibition of Syk tyrosine phosphorylation activity (LANCE TR-FRET kinase assay)
Format: biochemical
Conditions: 1 nM SYK, 550 nM substrate, 100 μM ATP, 1 hour room temperature

IC50 [nM]	SMILES
100 to 1000	NC(=O)c1cnc(NC2CCCc3cccnc32)nc1Nc1cccc(-n2nccn2)c1 (racemic) [Example 18, 4-(3-(2H-1,2,3-triazol-2-yl)phenylamino)-2-(5,6,7,8-tetrahydroquinolin-8-ylamino)pyrimidine-5-carboxamide]
1 to 10	CCC(Nc1ncc(C(N)=O)c(Nc2cccc(C)c2)n1)C1(N)CC1 (racemic) [Example 125, (±)-2-(1-(1-aminocyclopropyl)propylamino)-4-(m-tolylamino)pyrimidine-5-carboxamide]
100 to 1000	NC(=O)c1cnc(N[C@@H]2CCCC(=O)[C@@H]2N)nc1Nc1cccc(-n2nccn2)c1 (racemic) [Example 165]
10 to 100	NC(=O)c1cnc(N[C@@H]2CCC[C@H](F)[C@@H]2N)nc1Nc1cccc(-n2nccn2)c1 (racemic) [Example 174]
10 to 100	NC(=O)c1cnc(N[C@@H]2[C@H](F)CCC[C@@H]2N)nc1Nc1cccc(-n2nccn2)c1 (racemic) [Example 175, (±)-4-(3-(2H-1,2,3-triazol-1-yl)phenylamino)-2-((1S,2S,6R)-2-amino-6-fluorocyclohexylamino)pyrimidine-5-carboxamide]
1 to 10	Cc1cccc(Nc2nc(N[C@@H]3CC[C@@H](C(=O)O)C[C@@H]3N)ncc2C(N)=O)c1 (racemic) [Example 187, (1R,3S,4R)-3-amino-4-(5-carbamoyl-4-(m-tolylamino)pyrimidin-2-ylamino)cyclohexanecarboxylic acid]
10 to 100	CCOC(=O)[C@@H]1CC[C@@H](Nc2ncc(C(N)=O)c(Nc3cccc(C)c3)n2)[C@@H](N)C1 (racemic) [Example 188, (1R,3S,4R)-ethyl 3-amino-4-(5-carbamoyl-4-(m-tolylamino)pyrimidin-2-ylamino)cyclohexanecarboxylate]
1 to 10	CNC(=O)[C@@H]1CC[C@@H](Nc2ncc(C(N)=O)c(Nc3cccc(C)c3)n2)[C@@H](N)C1 (racemic) [Example 189, 2-((1R,2S,4R)-2-amino-4-(methylcarbamoyl)cyclohexylamino)-4-(m-tolylamino)pyrimidine-5-carboxamide]
1 to 10	Cc1cccc(Nc2nc(N[C@@H]3CC[C@@H](C(=O)N(C)C)C[C@@H]3N)ncc2C(N)=O)c1 (racemic) [Example 190, 2-((1R,2S,4R)-2-amino-4-(dimethylcarbamoyl)cyclohexylamino)-4-(m-tolylamino)pyrimidine-5-carboxamide]
10 to 100	Cc1cccc(Nc2nc(N[C@@H]3CC[C@@H](C(=O)N4CC(F)(F)C4)C[C@@H]3N)ncc2C(N)=O)c1 (racemic) [Example 192, 2-((1R,2S,4R)-2-amino-4-(3,3-difluoroazetidine-1-carbonyl)cyclohexylamino)-4-(m-tolylamino)pyrimidine-5-carboxamide]
10 to 100	Cc1cccc(Nc2nc(N[C@@H]3CC[C@@H](C(=O)N4CCCC4)C[C@@H]3N)ncc2C(N)=O)c1 (racemic) [Example 193, 2-((1R,2S,4R)-2-amino-4-(pyrrolidine-1-carbonyl)cyclohexylamino)-4-(m-tolylamino)pyrimidine-5-carboxamide]
10 to 100	NC(=O)c1cnc(N[C@@H]2CCC[C@@H](F)[C@@H]2N)nc1Nc1cccc(-n2nccn2)c1 (racemic) [Example 242, (±)-4-(3-(2H-1,2,3-triazol-2-yl)phenylamino)-2-((1R,2R,3R)-2-amino-3-fluorocyclohexylamino)pyrimidine-5-carboxamide]
100 to 1000	Cc1cccc(Nc2nc(N[C@@H]3C[C@@H](C(N)=O)CC[C@@H]3N)ncc2C(N)=O)c1 (racemic) [Example 243, 2-((1R,2S,5S)-2-amino-5-carbamoylcyclohexylamino)-4-(m-tolylamino)pyrimidine-5-carboxamide]
100 to 1000	NC(=O)c1cnc(N[C@@H]2CCCC[C@@H]2CO)nc1Nc1cccc(-n2nccn2)c1 (racemic) [Example 256, 4-((3-(2H-1,2,3-triazol-2-yl)phenyl)amino)-2-(((1R,2S)-2-(hydroxymethyl)cyclohexyl)amino)pyrimidine-5-carboxamide]
10 to 100	Cc1cccc(Nc2ncc(C(N)=O)c(NC3CCC(N)CC3)n2)c1 (stereo in doubt) [Example 246, 4-(trans-4-aminocyclohexylamino)-2-(m-tolylamino)pyrimidine-5-carboxamide]
10 to 100	COc1cccc(Nc2ncc(C(N)=O)c(NC3CCC(N)CC3)n2)c1 (stereo in doubt) [Example 247, 4-(trans-4-aminocyclohexylamino)-2-(3-methoxyphenylamino)pyrimidine-5-carboxamide]
100 to 1000	COc1ccc(Nc2ncc(C(N)=O)c(NC3CCC(N)CC3)n2)cn1 (stereo in doubt) [Example 248, 4-(trans-4-aminocyclohexylamino)-2-(6-methoxypyridin-3-ylamino)pyrimidine-5-carboxamide]
100 to 1000	CN(C)c1ncc(C(N)=O)c(Nc2cccc(-n3nccn3)c2)n1 [Example 3, 4-(3-(2H-1,2,3-triazol-2-yl)phenylamino)-2-(dimethylamino)pyrimidine-5-carboxamide]

IC50 [nM]	SMILES
100 to 1000	CCO[C@@H]1CCCC[C@H]1Nc1ncc(C(N)=O)c(Nc2cccc(-n3nccn3)c2)n1 [Example 6]
100 to 1000	CCO[C@H]1CCCC[C@H]1Nc1ncc(C(N)=O)c(Nc2cccc(-n3nccn3)c2)n1 [Example 7, 4-(3-(2H-1,2,3-triazol-2-yl)phenylamino)-2-((1R,2S)-2-ethoxycyclohexylamino)pyrimidine-5-carboxamide]
100 to 1000	[N-]=[N+]=N[C@H]1CCCC[C@H]1Nc1ncc(C(N)=O)c(Nc2cccc(-n3nccn3)c2)n1 [Example 8, 4-(3-(2H-1,2,3-triazol-2-yl)phenylamino)-2-((1R,2S)-2-azidocyclohexylamino)pyrimidine-5-carboxamide]
100 to 1000	NC(=O)c1cnc(N[C@@H]2CCCC[C@@H]2n2ccnn2)nc1Nc1cccc(-n2nccn2)c1 [Example 9, 2-((1R,2S)-2-(1H-1,2,3-triazol-1-yl)cyclohexylamino)-4-(3-(2H-1,2,3-triazol-2-yl)phenylamino)pyrimidine-5-carboxamide]
100 to 1000	NC(=O)c1cnc(N[C@@H]2CCCC[C@@H]2NC=O)nc1Nc1cccc(-n2nccn2)c1 [Example 10, 4-(3-(2H-1,2,3-triazol-2-yl)phenylamino)-2-((1R,2S)-2-formamidocyclohexylamino)pyrimidine-5-carboxamide]
100 to 1000	N#CCN[C@H]1CCCC[C@H]1Nc1ncc(C(N)=O)c(Nc2cccc(-n3nccn3)c2)n1 [Example 11, 4-(3-(2H-1,2,3-triazol-2-yl)phenylamino)-2-((1R,2S)-2-(cyanomethylamino)cyclohexylamino)pyrimidine-5-carboxamide]
100 to 1000	NC(=O)c1cnc(N[C@@H]2CCCC[C@@H]2NCCO)nc1Nc1cccc(-n2nccn2)c1 [Example 12, 4-(3-(2H-1,2,3-triazol-2-yl)phenylamino)-2-((1R,2S)-2-(2-hydroxyethylamino)cyclohexylamino)pyrimidine-5-carboxamide]
100 to 1000	NC(=O)c1cnc(N[C@@H]2CCCC(F)(F)[C@@H]2N)nc1Nc1cccc(-n2nccn2)c1 [Example 13]
100 to 1000	CC(NC1CCCC[C@H]1Nc1ncc(C(N)=O)c(Nc2cccc(-n3nccn3)c2)n1)N[C@H]1CCCC[C@H]1Nc1ncc(C(N)=O)c(Nc2cccc(-n3nccn3)c2)n1 (stereo partly drawn) [Example 15, 2,2′-(1R,1′R,2S,2′S)-2,2′-(ethane-1,1-diylbis(azanediyl))bis(cyclohexane-2,1-diyl)bis(azanediyl)bis(4-(3-(2H-1,2,3-triazol-2-yl)phenylamino)pyrimidine-5-carboxamide)]
100 to 1000	NC(=O)c1cnc(N[C@H]2CCCC(F)(F)[C@H]2N)nc1Nc1cccc(-n2nccn2)c1 [Example 19]
10 to 100	NC(=O)c1cnc(N[C@@H]2CCCC[C@@H]2N)nc1Nc1ccc(Br)c(-n2nccn2)c1 [Example 20, 2-((1R,2S)-2-aminocyclohexylamino)-4-(4-bromo-3-(2H-1,2,3-triazol-2-yl)phenylamino)pyrimidine-5-carboxamide]
10 to 100	NC(=O)c1cnc(N[C@@H]2CCCC[C@@H]2N)nc1Nc1cc(Br)cc(-n2nccn2)c1 [Example 21, 2-((1R,2S)-2-aminocyclohexylamino)-4-(3-bromo-5-(2H-1,2,3-triazol-2-yl)phenylamino)pyrimidine-5-carboxamide]
1 to 10	NC(=O)c1cnc(N[C@@H]2CCCC[C@@H]2N)nc1Nc1ccc(Cl)c(-n2nccn2)c1 [Example 22, 2-((1R,2S)-2-aminocyclohexylamino)-4-(4-chloro-3-(2H-1,2,3-triazol-2-yl)phenylamino)pyrimidine-5-carboxamide]
10 to 100	NC(=O)c1cnc(N[C@@H]2CCCC[C@@H]2N)nc1Nc1cc(-n2nccn2)c(Cl)cc1Cl [Example 24, 2-((1R,2S)-2-aminocyclohexylamino)-4-(2,4-dichloro-5-(2H-1,2,3-triazol-2-yl)phenylamino)pyrimidine-5-carboxamide]
100 to 1000	NC(=O)c1cnc(N[C@@H]2CCCC(F)(F)[C@@H]2N)nc1Nc1cccc(-c2ncccn2)c1 [Example 26, 2-(((1R,2R)-2-amino-3,3-difluorocyclohexyl)amino)-4-((3-(pyrimidin-2-yl)phenyl)amino)pyrimidine-5-carboxamide]
100 to 1000	NC(=O)c1cnc(N[C@@H]2CCCC(F)(F)[C@@H]2N)nc1Nc1ccccc1 [Example 27, 2-(((1R,2R)-2-amino-3,3-difluorocyclohexyl)amino)-4-(phenylamino)pyrimidine-5-carboxamide]
10 to 100	NC(=O)c1cnc(N[C@@H]2CCCC(F)(F)[C@@H]2N)nc1Nc1cccc(Cl)c1 [Example 28, 2-(((1R,2R)-2-amino-3,3-difluorocyclohexyl)amino)-4-((3-chlorophenyl)amino)pyrimidine-5-carboxamide]
